“And” between values parts separate entries of the source, which are not always exact repeats. Identical values can stand only once.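 Method: 48-hour compound exposure of cells in 96-well plates, five concentrations, linear interpolation of endpoints. GI50 marks 50% less growth. Definition used: TGI = concentration required for complete inhibition of growth.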 Where a SMILES comes first, the peptide text is derived from it. [ ]: non-standard residue; d: D form. The star is where a group is joined. X13 = OC[C@H](CC1CCCCC1)N*; Aib = CC(C)(N)C(=O)O Where only a bound is given, the exact number is not on record here.

For this test, the system named is MDA-MB-468 breast. Kind of test: inhibition of tumour cell growth, NCI panel, 48 h.
As for `OCc1ccc(-c2csc(-c3ccc(CO)o3)c2)o1`, the GI50 is 188 nM and the TGI is 486 nM.
In the same order, the values of `COc1ccc(-c2cc(/C=C3\C(=O)Nc4cc(Cl)ccc43)[nH]n2)cc1` are 2620 nM and 9480 nM.
Consider `CCC(C)(C)c1cc(O)c(C(C)(C)CC)cc1O`, for which the GI50 is 2110 nM and the TGI stood at 5800 nM.
Regarding `O=C(/C=C/C12c3ccccc3C(c3ccccc31)C1C(=O)N(c3ccc(Cl)cc3)C(=O)C12)c1ccccn1` (stereo unspecified), the GI50 was 398 nM.
`CCn1c(-c2nonc2N)nc2c(C#CC(C)(C)O)ncc(OC3CCNCC3)c21`: the GI50 was 267 nM and the TGI is 10400 nM.
Consider `Cc1ccc(F)c(NC(=O)Nc2ccc(-c3cccc4[nH]nc(N)c34)cc2)c1`, for which the GI50 is 2370 nM and 1860 nM; the TGI was 5280 nM and 4610 nM.
As to `CNCc1cccc2c1OCCCCCCC(C)(O)CC(C)(C)S(=O)(=O)c1ccc(cc1)-c1cnc(N)c(n1)C(=O)N2` (stereo unspecified), the GI50 is 196 nM and the TGI was 1160 nM.
The like results for `C/C(CCC(=O)O)=N/Nc1ccc([N+](=O)[O-])cc1` were, in that order, > 100000 nM and > 100000 nM.
The like results for `Cc1ccc(C2=Nn3c(nnc3-c3ccccc3)SC2)cc1` were, in that order, 1690 nM and 8080 nM.
For `CN1CC=C(c2cc(NC(=O)Nc3ccc(Oc4ccnc(NC(=O)C5CC5)c4)c(F)c3)cc(C(F)(F)F)c2)CC1`, the GI50 was 286 nM and the TGI amounted to 1990 nM.
Regarding `O=C(c1ccccc1)C(Cl)C(Cl)c1ccccc1` (stereo unspecified), the GI50 is 1380 nM and the TGI came out at 4310 nM.
The like results for `NC(=O)c1cccc2c(N[C@H](CN3CCC3)c3ccc(Cl)c(C(F)(F)F)c3)ncnc12` were, in that order, 108 nM and 1280 nM.
In the case of `Cc1ccc([P+](Cc2ccccc2)(c2ccccc2)c2ccccc2)cc1`, the GI50 was 517 nM and the TGI was 8640 nM.
In the same order, the values of `CS(=O)(=O)N1CCC(n2c(=O)c(Oc3ccc(F)cc3F)cc3cnc(NC4CCOCC4)nc32)CC1` are > 25000 nM and > 25000 nM.
`CC1=C/C=C/C(=O)O[C@@H]([C@H](C)[C@H](O)[C@@H](C)NC(=O)C(C)C)[C@H](C)/C=C/C(C)=C/[C@H]2C=CCC[C@@]2(C)\C=C\1`: the GI50 is 110 nM and 23.5 nM; the TGI was found to be 6410 nM.
For the molecule `CS(=O)(=O)CCNCc1ccc(-c2ccc3ncnc(Nc4ccc(OCc5cccc(F)c5)c(Cl)c4)c3c2)o1`, the GI50 is 51.8 nM and 57.1 nM and 13 nM; the TGI is 818 nM and 999 nM and 152 nM.
For `CNC(=O)c1nn(C)c2c1C(C)(C)Cc1cnc(Nc3cccc(N4CCN(C)CC4)c3)nc1-2`, the GI50 is 348 nM and the TGI stood at 3300 nM.
In the same order, the values of `N#Cc1c(NCc2ccccc2)nc(NCc2ccccc2)c(C#N)c1-c1ccc(Cl)cc1` are > 50000 nM and > 50000 nM.
The like results for `CN(C)C1CCN(Cc2ccc(NC(=O)c3cncc(C#Cc4cnc(N)c5ncccc45)c3)cc2C(F)(F)F)CC1` were, in that order, 6490 nM and 16500 nM.
In the same order, the values of `CCCCCCC1N=C(N)N=C(N)N1c1cccc(Cl)c1` (stereo unspecified) are 122 nM and 936 nM.
Take `O=C([O][Hg][c]1ccccc1)c1ccccc1`: the GI50 was 435 nM and the TGI was determined as 1940 nM.
With `O=C(CCCn1c2c(sc3ccccc32)c(=O)n2nnc(-c3ccccc3)c12)NCCc1cnc[nH]1`, the GI50 is 664 nM and the TGI is 1940 nM.
In the same order, the values of `COc1cc(-c2cc3ncccc3c3nc(OCCN(C)C)c4cccnc4c23)cc(OC)c1OC` are 919 nM and 5360 nM.
In the case of `C[C@H](c1ccc(F)cc1CCCC(=O)O)N(c1cc(F)ccc1F)S(=O)(=O)c1ccc(Cl)cc1`, the GI50 was 17300 nM and the TGI was determined as 84700 nM.
The like results for `CN1CCN(Cc2ccc(NC(=O)c3cncc(C#Cc4c(N)ncc5ccc(C#N)cc45)c3)cc2C(F)(F)F)CC1` were, in that order, 2890 nM and 11500 nM.
The like results for `CC(c1cc(Cl)ccc1O)c1cc(Cl)ccc1O` were, in that order, 2980 nM and 9470 nM.
The like results for `Oc1c(C(Nc2ccccn2)c2cccc(Oc3ccccc3)c2)ccc2cccnc12` (stereo unspecified) were, in that order, 441 nM and 8920 nM.
In the case of `Cc1ccccc1C1=C(c2cn(C)c3ccccc23)C(=O)NC1=O`, the GI50 is 15500 nM and the TGI is > 25000 nM.
In the same order, the values of `COC(=O)c1ccc2nc(-c3cc4ccccc4n3C)n(CCCCOc3cc4c(cc3OC)C(=O)N3CCC[C@H]3C=N4)c2c1` are 356 nM and 1260 nM.
In the same order, the values of `COc1ccc2c(c1)N(Cc1ccc(Cl)cc1)CCC2N1CCCC1=O` (stereo unspecified) are 3410 nM and 19900 nM.
For `COC1=CC(c2ccc[nH]2)=N/C1=C\c1[nH]c(C)c(C(=O)CCC(=O)Oc2ccc3c(c2)CCC2C3CC[C@]3(C)[C@@H](O)CC[C@@H]23)c1C` (stereo partly specified), the GI50 was 2520 nM and the TGI stood at 39800 nM.
As to `CC(=O)NC(C)(C)C(=O)N[C@@H](C)C(=O)NC(C)(C)C(=O)N[C@@H](C)C(=O)NC(C)(C)C(=O)N[C@@H](C)C(=O)N[C@@H](CCC(N)=O)C(=O)NC(C)(C)C(=O)N[C@H](C(=O)NC(C)(C)C(=O)NCC(=O)N[C@@H](CC(C)C)C(=O)NC(C)(C)C(=O)N1CCC[C@H]1C(=O)N[C@H](C(=O)NC(C)(C)C(=O)NC(C)(C)C(=O)N[C@@H](CCC(N)=O)C(=O)N[C@@H](CCC(N)=O)C(=O)N[C@H](CO)CC1CCCCC1)C(C)C)C(C)C` (Ac-[Aib]A[Aib]A[Aib]AQ[Aib]V[Aib]GL[Aib]PV[Aib][Aib]QQ-X13), the GI50 is 665 nM and the TGI is > 4350 nM.
With `C[C@@H](N)COc1ccc(-c2cnc3ccc(N[C@H](C)c4cccc(F)c4)nn23)cc1`, the GI50 was 1130 nM and the TGI came out at 2670 nM.
The like results for `N#CC1C[C@@H]2CC3(CCC2CN1C(=O)c1ccccc1)OCCO3` (stereo partly specified) were, in that order, > 100000 nM and > 100000 nM.
As to `CCCCCCCCCCCCCC[n+]1ccccc1`, the GI50 is 111 nM and the TGI is 631 nM.
In the same order, the values of `Cc1ccc(-c2nc3nc(-c4ccc(F)cc4)nc(N4CCNCC4)c3o2)cc1` are 1740 nM and 3380 nM.
The like results for `CN1CCN(C(=O)[C@@]2(C)CC[C@]3(C)CC[C@]4(C)C(=CC[C@@H]5[C@@]6(C)CCC(=O)NC(C)(C)[C@@H]6CC[C@]54C)[C@@H]3C2)CC1` were, in that order, 1220 nM and 2820 nM.
The like results for `Oc1cc(N2CC2)c(O)cc1N1CC1` were, in that order, 201 nM and 1270 nM.
For the molecule `Cn1cc(C2=C(c3c4n(c5ccccc35)CCNC4)C(=O)NC2=O)c2ccccc21`, the GI50 is 3810 nM and the TGI is > 20900 nM.
With `CNS(=O)(=O)OCC1OC(n2cnc3cncnc32)C(O)C1O` (stereo unspecified), the GI50 is > 100000 nM and the TGI is > 100000 nM.
Turning to `CCN1CCC(CC(=O)Nc2n[nH]c3nnc(-c4cccc(F)c4F)cc23)CC1`, the GI50 was 3450 nM and the TGI is > 23000 nM.

The values are drawn from PubChem BioAssay (NCI).
